# Laboratory results reported in patent US7138361B2, “Herbicidal heterocycles” (E. I. du Pont de Nemours and Company, priority 2000, dated 2006).
# Columns and labels:
# Format in all cases: in vivo
# [1] = test system: barnyardgrass (Echinochloa crus-galli); experiment: Test C flooded paddy test; settings: for Barnyardgrass plant response rating: Flooded Paddy, scale 0 to 100, 0 no effect, 100 complete control; for Plant response rating, Barnyardgrass: flooded paddy test, scale 0 to 100 (0 no effect, 100 complete control)
# Method in brief: (§1)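 Rice and three paddy weeds were grown to the 2-leaf stage under flooded conditions, then treated and kept in a greenhouse for 12–14 days. Response was rated visually against untreated controls on a 0–100 scale, where 100 is complete control.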
# [2] = test system: rice (Oryza saliva); experiment: Test C flooded paddy test; settings: for Rice plant response rating: Flooded Paddy, scale 0 to 100, 0 no effect, 100 complete control
# Method in brief: as §1
# [3] = test system: Sunflower; experiment: Test C preemergence; settings: Rate 500 g/ha, visual evaluation after 12 to 14 days
# [4] = test system: yellow nutsedge (Cyperus esculentus); experiment: Test C preemergence; settings: for Plant response rating, Nutsedge: scale 0 to 100, 0 no effect, 100 complete control
# Method in brief: (§2)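 Preemergence: seeds sown then treated. Postemergence: plants 2–18 cm, 1- to 4-leaf. Both with surfactant-containing solvent formulation; visual injury scored 0–100 after 12–14 d.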
# [5] = test system: johnsongrass (Sorghum halepense); experiment: Test C preemergence; settings: for Plant response rating, Johnsongrass: scale 0 to 100, 0 no effect, 100 complete control; for Plant response rating (0 to 100), Johnsongrass: preemergence, visual evaluation after 12 to 14 days
# Method in brief: as §2
# [6] = test system: common ragweed (Ambrosia elatior); experiment: Test C preemergence; settings: for Plant response rating, Ragweed, Common: scale 0 to 100, 0 no effect, 100 complete control
# Method in brief: as §2
# [7] = test system: woolly cupgrass (Eriochloa villosa); experiment: Test C preemergence; settings: for Plant response rating, Cupgrass, Woolly: scale 0 to 100, 0 no effect, 100 complete control; for Plant response rating (0 to 100), Cupgrass, Woolly: preemergence, visual evaluation after 12 to 14 days
# Method in brief: as §2
# [8] = test system: morningglory (Ipomoea hederacea); experiment: Test C preemergence; settings: for Plant response rating, Morningglory: scale 0 to 100, 0 no effect, 100 complete control
# Method in brief: as §2
# [9] = test system: goosegrass (Eleusine indica); experiment: Test C preemergence; settings: for Plant response rating, Goosegrass: scale 0 to 100, 0 no effect, 100 complete control; for Plant response rating (0 to 100), Goosegrass: preemergence, visual evaluation after 12 to 14 days
# Method in brief: as §2
# [10] = test system: Surinam grass (Brachiaria decumbens); experiment: Test C preemergence; settings: for Plant response rating, Surinam grass: scale 0 to 100, 0 no effect, 100 complete control; for Plant response rating (0 to 100), Surinam grass: preemergence, visual evaluation after 12 to 14 days
# Method in brief: as §2
# [11] = test system: cocklebur (Xanthium strumarium); experiment: Test C preemergence; settings: for Plant response rating, Cocklebur: scale 0 to 100, 0 no effect, 100 complete control; for Plant response rating (0 to 100), Cocklebur: preemergence, visual evaluation after 12 to 14 days
# Method in brief: as §2
# [12] = test system: giant foxtail (Setaria faberii); experiment: Test C preemergence; settings: for Plant response rating, Foxtail, Giant: scale 0 to 100, 0 no effect, 100 complete control; for Plant response rating (0 to 100), Foxtail, Giant: preemergence, visual evaluation after 12 to 14 days
# Method in brief: as §2
# [13] = test system: Nightshade; experiment: Test C preemergence; settings: scale 0 to 100, 0 no effect, 100 complete control
# [14] = test system: pigweed (Amaranthus retroflexus); experiment: Test C preemergence; settings: for Plant response rating, Pigweed: scale 0 to 100, 0 no effect, 100 complete control
# Method in brief: as §2
# [15] = test system: lambsquarters (Chenopodium album); experiment: Test C preemergence; settings: for Plant response rating, Lambsquarters: scale 0 to 100, 0 no effect, 100 complete control
# Method in brief: as §2
# [16] = test system: soybean (Glycine max); experiment: Test C preemergence; settings: for Plant response rating, Soybean: scale 0 to 100, 0 no effect, 100 complete control
# Method in brief: as §2
# [17] = test system: kochia (Kochia scoparia); experiment: Test C preemergence; settings: for Plant response rating, Kochia: scale 0 to 100, 0 no effect, 100 complete control; for Plant response rating (0 to 100), Kochia: preemergence, visual evaluation after 12 to 14 days
# Method in brief: as §2
# [18] = test system: Sunflower; experiment: Test C preemergence; settings: Rate 125 g/ha; scale 0 to 100, 0 no effect, 100 complete control
# [19] = test system: velvetleaf (Abutilon theophrasti); experiment: Test C preemergence; settings: for Plant response rating, Velvetleaf: scale 0 to 100, 0 no effect, 100 complete control
# Method in brief: as §2
# [20] = test system: bermudagrass (Cynodon dactylon); experiment: Test C preemergence; settings: for Plant response rating, Bermudagrass: scale 0 to 100, 0 no effect, 100 complete control; for Plant response rating (0 to 100 where 0 is no effect and 100 is complete control), Bermudagrass: preemergence, visual evaluation after 12 to 14 days
# Method in brief: as §2
# [21] = test system: crabgrass (Digitaria sanguinalis); experiment: Test C preemergence; settings: for Plant response rating, Crabgrass: scale 0 to 100, 0 no effect, 100 complete control; for Plant response rating (0 to 100), Crabgrass: preemergence, visual evaluation after 12 to 14 days
# Method in brief: as §2
# [22] = test system: corn (Zea mays); experiment: Test C preemergence; settings: for Plant response rating, Corn: scale 0 to 100, 0 no effect, 100 complete control; for Plant response rating (0 to 100), Corn: preemergence, visual evaluation after 12 to 14 days
# Method in brief: as §2
# [23] = preemergence, Rate 500 g/ha, visual evaluation after 12 to 14 days
structure (smiles),measurement,setting,value
CCC(C)c1ccn(C2CCN(c3ccc(C)c(OC)c3)C2=O)n1 (stereo not shown) [Compound 80],Barnyardgrass plant response rating,[1]; Rate 250 g/ha,90
same,Barnyardgrass plant response rating,[1]; Rate 500 g/ha,90
same,"Plant response rating, Barnyardgrass",[1]; Rate 62 g/ha,0
same,"Plant response rating, Barnyardgrass",[1]; Rate 125 g/ha,60
same,Rice plant response rating,[2]; Rate 250 g/ha,70
same,Rice plant response rating,[2]; Rate 500 g/ha,90
same,"Plant response rating, Rice","[2]; flooded paddy test, Rate 125 g/ha, scale 0 to 100 (0 no effect, 100 complete control)",50
same,"Plant response rating (0 to 100), Sunflower",[3],60
same,"Plant response rating, Nutsedge",[4]; Rate 62 g/ha,0
same,"Plant response rating, Nutsedge",[4]; Rate 125 g/ha,20
same,"Plant response rating (0 to 100), Nutsedge",[4]; [23],0
same,"Plant response rating, Nutsedge","[4]; preemergence, Rate 250 g/ha",0
same,"Plant response rating, Johnsongrass",[5]; Rate 62 g/ha,20
same,"Plant response rating, Johnsongrass",[5]; Rate 125 g/ha,60
same,"Plant response rating (0 to 100), Johnsongrass",[5]; Rate 250 g/ha,60
same,"Plant response rating (0 to 100), Johnsongrass",[5]; Rate 500 g/ha,70
same,"Plant response rating, Ragweed, Common",[6]; Rate 125 g/ha,100
same,"Plant response rating (0 to 100), Ragweed, Common",[6]; [23],100
same,"Plant response rating, Ragweed, Common","[6]; preemergence, Rate 250 g/ha",100
same,"Plant response rating, Cupgrass, Woolly",[7]; Rate 62 g/ha,90
same,"Plant response rating, Cupgrass, Woolly",[7]; Rate 125 g/ha,100
same,"Plant response rating (0 to 100), Cupgrass, Woolly",[7]; Rate 250 g/ha,100
same,"Plant response rating (0 to 100), Cupgrass, Woolly",[7]; Rate 500 g/ha,100
same,"Plant response rating, Morningglory",[8]; Rate 62 g/ha,0
same,"Plant response rating, Morningglory",[8]; Rate 125 g/ha,20
same,"Plant response rating (0 to 100), Morningglory",[8]; [23],100
same,"Plant response rating, Morningglory","[8]; preemergence, Rate 250 g/ha",100
same,"Plant response rating, Goosegrass",[9]; Rate 62 g/ha,100
same,"Plant response rating, Goosegrass",[9]; Rate 125 g/ha,100
same,"Plant response rating (0 to 100), Goosegrass",[9]; Rate 250 g/ha,100
same,"Plant response rating (0 to 100), Goosegrass",[9]; Rate 500 g/ha,100
same,"Plant response rating, Surinam grass",[10]; Rate 62 g/ha,20
same,"Plant response rating, Surinam grass",[10]; Rate 125 g/ha,70
same,"Plant response rating (0 to 100), Surinam grass",[10]; Rate 250 g/ha,100
same,"Plant response rating (0 to 100), Surinam grass",[10]; Rate 500 g/ha,100
same,"Plant response rating, Cocklebur",[11]; Rate 62 g/ha,0
same,"Plant response rating, Cocklebur",[11]; Rate 125 g/ha,50
same,"Plant response rating (0 to 100), Cocklebur",[11]; Rate 250 g/ha,0
same,"Plant response rating (0 to 100), Cocklebur",[11]; Rate 500 g/ha,100
same,"Plant response rating, Foxtail, Giant",[12]; Rate 62 g/ha,0
same,"Plant response rating, Foxtail, Giant",[12]; Rate 125 g/ha,100
same,"Plant response rating (0 to 100), Foxtail, Giant",[12]; Rate 250 g/ha,40
same,"Plant response rating (0 to 100), Foxtail, Giant",[12]; Rate 500 g/ha,50
same,"Plant response rating, Nightshade",[13]; Rate 62 g/ha,90
same,"Plant response rating, Nightshade",[13]; Rate 125 g/ha,100
same,"Plant response rating, Nightshade",[13]; Rate 250 g/ha,100
same,"Plant response rating, Pigweed",[14]; Rate 125 g/ha,0
same,"Plant response rating (0 to 100), Pigweed",[14]; [23],40
same,"Plant response rating, Pigweed","[14]; preemergence, Rate 250 g/ha",0
same,"Plant response rating, Lambsquarters",[15]; Rate 62 g/ha,100
same,"Plant response rating, Lambsquarters",[15]; Rate 125 g/ha,100
same,"Plant response rating (0 to 100), Lambsquarters",[15]; [23],100
same,"Plant response rating, Lambsquarters","[15]; preemergence, Rate 250 g/ha",100
same,"Plant response rating, Soybean",[16]; Rate 125 g/ha,30
same,"Plant response rating (0 to 100), Soybean",[16]; [23],100
same,"Plant response rating, Soybean","[16]; preemergence, Rate 250 g/ha",50
same,"Plant response rating, Kochia",[17]; Rate 62 g/ha,100
same,"Plant response rating, Kochia",[17]; Rate 125 g/ha,100
same,"Plant response rating (0 to 100), Kochia",[17]; Rate 250 g/ha,100
same,"Plant response rating (0 to 100), Kochia",[17]; Rate 500 g/ha,100
same,"Plant response rating, Sunflower",[18],30
same,"Plant response rating, Velvetleaf",[19]; Rate 125 g/ha,40
same,"Plant response rating (0 to 100), Velvetleaf",[19]; [23],100
same,"Plant response rating, Velvetleaf","[19]; preemergence, Rate 250 g/ha",70
same,"Plant response rating, Bermudagrass",[20]; Rate 62 g/ha,100
same,"Plant response rating, Bermudagrass",[20]; Rate 125 g/ha,100
same,"Plant response rating (0 to 100 where 0 is no effect and 100 is complete control), Bermudagrass",[20]; Rate 250 g/ha,100
same,"Plant response rating (0 to 100 where 0 is no effect and 100 is complete control), Bermudagrass",[20]; Rate 500 g/ha,100
same,"Plant response rating, Crabgrass",[21]; Rate 62 g/ha,100
same,"Plant response rating, Crabgrass",[21]; Rate 125 g/ha,100
same,"Plant response rating (0 to 100), Crabgrass",[21]; Rate 250 g/ha,100
same,"Plant response rating (0 to 100), Crabgrass",[21]; Rate 500 g/ha,100
same,"Plant response rating, Corn",[22]; Rate 62 g/ha,0
same,"Plant response rating, Corn",[22]; Rate 125 g/ha,30
same,"Plant response rating (0 to 100), Corn",[22]; Rate 250 g/ha,0
same,"Plant response rating (0 to 100), Corn",[22]; Rate 500 g/ha,60
